Assay results as given in patent publication US20260308158A1, “TARGETING RNAS ASSOCIATED WITH TAUOPATHIES WITH SMALL MOLECULES” (University of Florida Research Foundation, Incorporated, priority 2023, published 2026).

Columns and labels:
[1] = tested on: MAPT exon 10 splicing in primary neurons from htau mice; assay: 4R/3R MAPT mRNA by RT-qPCR in primary neurons from htau mice; type: cell-based, human MAPT in htau transgenic mouse neurons; settings: 48 h
Method: RNA Isolation and Real-Time Quantitative PCR (RT-qPCR). HeLa cells were treated as described in the Luciferase Reporter assay to Study Exon 10 Alternative Splicing. LAN5 cells were seeded in 12-well plates at 0.2×10^6 cells per well, treated with compound or ASO, and incubated for 48 h. Compound stocks prepared in DMSO and ASO stocks prepared in water were diluted in growth medium and added to cells. Total RNA was extracted from cells and analyzed via RT-qPCR to determine levels of 3R and 4R tau mRNA. In brief, the cells were washed with 1×DPBS and then lysed in the well using 300 μL of Lysis Buffer provided in a Quick-RNA MiniPrep kit (Zymo Research), which was used to extract total RNA per the manufacturer's protocol including the on-column DNase I digestion. The concentration of total RNA was measured by NanoDrop 2000 (Thermo Fisher Scientific). Only samples with OD260/OD280>1.8 were carried forward for analysis. Reverse transcription (RT) was carried out on 200 ng of total RNA using a qScript cDNA synthesis kit (QuantaBio) in a total volume of 10 μL according to the manufacturer's protocol. An Applied Biosystems QS5 384-well PCR system was used to complete qPCR reactions with Power SYBR Green Master Mix (Life Technologies), 600 nM each primer (Table S3), 20 ng of cDNA (1 μL of the RT reaction), in a total volume of 33 μL. Technical triplicates (10 μL each) were aliquoted into 384-well qPCR plates (Applied biosystems, 4483285). Subsequent qPCR analysis was performed using an Applied Biosystems QS5 384-well PCR system (software v.1.3.0). 4R/3R ratio were analyzed using ΔΔCt method using Equation 2: […]
Isolation and Treatment of Primary Neurons from Humanized tau (hTau) Transgenic Mice. All animal studies were completed as approved by the Scripps Florida Institutional Animal Care and Use Committee. […]

[2] = tested on: DDPAC SRE RNA; assay: In vitro competitive Chem-CLIP (C-Chem-CLIP), DDPAC SRE RNA; settings: 3 at 1.5 μM, read-out: IC50, competition of the binding of 3
Method: In Vitro Chemical Cross-linking and Isolation by Pull Down (Chem-CLIP) and Competitive Chem-CLIP (C-Chem-CLIP). Growth medium [Dulbecco's modified eagle medium (DMEM; corning, 10-013-CM) with 1× Glutagro (corning)] and 10% (v/v) fetal bovine serum (FBS; Sigma, 12003C) was inactivated by heating at 95° C. for 15 min and slowly cooling to room temperature. Approximately 10,000 counts of 32P 5′-end labeled tau WT, DDPAC, WT+I17T, or DDPAC+I17T RNA were folded in 10 μL growth medium by heating at 65° C. for 5 min and slowly cooling to room temperature. Chem-CLIP probe 3 or negative control probe 4 was then added into the folded RNA in a total volume of 20 μL, and the mixtures were incubated at 37° C. for 1 h. For C-Chem-CLIP, dilutions of competing compound 2 were incubated with RNA for 30 min before adding 3. […]
The Chem-CLIP probe 3 or control probe 4 was then clicked to disulfide biotin azide (2 μL of 10 mM solution prepared in DMSO solution per sample; Click Chemistry Tools, catalog no. 1168-10). […] The radioactive signal from bound RNAs (on the beads) and unbound RNAs (in the wash buffer) was measured by using a Beckman Coulter LS6500 Liquid Scintillation Counter as Rbound and Runbound. Enrichment was calculated as the percentage of radiolabeled RNA captured by beads calculated as Rbound/(Rbound+Runbound).

With `COc1cc(N)ncc1CCCN(C)CCCn1cnc2c3ccccc3n(C)c2c1=O` [Compound 2, 3-(3-((3-(6-amino-4-methoxypyridin-3-yl)propyl)(methyl)amino)propyl)-5-methyl-3,5-dihydro-4H-pyrimido[5,4-b]indol-4-one] the “4R/3R ratio and PSI10” value [1] was “dose dependent reduction”, the “relative potency (4R/3R ratio and PSI10)” value [1] was “more potent than 1” and the IC50 [2] was ~2000 nM.
